Results from ChEMBL document CHEMBL3112450, “Synthesis and in vitro antitumor evaluation of primary amine substituted quinazoline linked benzimidazole” (Bioorg Med Chem Lett, 2014).

Legend:
Assay type in all cases: functional
NCI-H23 [1] = test: Cytotoxicity against human NCI-H23 cells after 48 hrs by SRB assay; details: NCI-H23, 48 h
SK-MEL-2 [2] = test: Cytotoxicity against human SK-MEL-2 cells assessed as cell growth at 10^-7 M after 48 hrs by SRB assay; details: SK-MEL-2, 48 h, read-out: Activity
SNB-19 = test: Cytotoxicity against human SNB19 cells assessed as cell growth at 10^-7 M after 48 hrs by SRB assay; details: SNB-19, 48 h, read-out: Activity
[3] = Cytotoxicity against human Hs578T cells assessed as cell growth at 10^-8 M after 48 hrs by SRB assay; details: Hs-578T, read-out: Activity
MDA-MB-231 [4] = test: Cytotoxicity against human MDA-MB-231 cells assessed as cell growth at 10^-8 M after 48 hrs by SRB assay; details: MDA-MB-231, 48 h, read-out: Activity
[5] = Cytotoxicity against human OVCAR5 cells assessed as cell growth at 10^-4 M after 48 hrs by SRB assay; details: OVCAR-5, 48 h, read-out: Activity
SK-MEL-5 [6] = test: Cytotoxicity against human SK-MEL-5 cells assessed as cell growth at 10^-4 M after 48 hrs by SRB assay; details: SK-MEL-5, 48 h, read-out: Activity
MDA-MB-435 = test: Cytotoxicity against human MDA-MB-435 cells assessed as cell growth at 10^-4 M after 48 hrs by SRB assay; details: MDA-MB-435, 48 h, read-out: Activity
SF-295 = test: Cytotoxicity against human SF295 cells assessed as cell growth at 10^-4 M after 48 hrs by SRB assay; details: SF-295, 48 h, read-out: Activity
HCT-116 = test: Cytotoxicity against human HCT116 cells assessed as cell growth at 10^-4 M after 48 hrs by SRB assay; details: HCT-116, 48 h, read-out: Activity
SK-MEL-2 [7] = test: Cytotoxicity against human SK-MEL-2 cells assessed as cell growth at 10^-8 M after 48 hrs by SRB assay; details: SK-MEL-2, 48 h, read-out: Activity
CCRF-CEM = test: Cytotoxicity against human CCRF-CEM cells assessed as cell growth at 10^-4 M after 48 hrs by SRB assay; details: read-out: Activity
SF-268 = test: Cytotoxicity against human SF268 cells assessed as cell growth at 10^-8 M after 48 hrs by SRB assay; details: SF-268, 48 h, read-out: Activity
KM12 = test: Cytotoxicity against human KM12 cells assessed as cell growth at 10^-8 M after 48 hrs by SRB assay; details: KM12, 48 h, read-out: Activity
HT-29 = test: Cytotoxicity against human HT-29 cells assessed as cell growth at 10^-8 M after 48 hrs by SRB assay; details: HT-29, 48 h, read-out: Activity
NCI-H322M = test: Cytotoxicity against human NCI-H322M cells assessed as cell growth at 10^-8 M after 48 hrs by SRB assay; details: read-out: Activity
NCI-H23 [8] = test: Cytotoxicity against human NCI-H23 cells assessed as cell growth at 10^-8 M after 48 hrs by SRB assay; details: NCI-H23, 48 h, read-out: Activity
NCI-H226 = test: Cytotoxicity against human NCI-H226 cells assessed as cell growth at 10^-8 M after 48 hrs by SRB assay; details: NCI-H226, 48 h, read-out: Activity
HOP-62 = test: Cytotoxicity against human HOP62 cells assessed as cell growth at 10^-8 M after 48 hrs by SRB assay; details: HOP-62, 48 h, read-out: Activity
RPMI-8226 = test: Cytotoxicity against human RPMI8226 cells assessed as cell growth at 10^-8 M after 48 hrs by SRB assay; details: RPMI-8226, 48 h, read-out: Activity
K562 = test: Cytotoxicity against human K562 cells assessed as cell growth at 10^-8 M after 48 hrs by SRB assay; details: K562, 48 h, read-out: Activity
T47D = test: Cytotoxicity against human T47D cells after 48 hrs by SRB assay
RXF 393 = test: Cytotoxicity against human RXF393 cells after 48 hrs by SRB assay; details: RXF 393, 48 h
SK-MEL-5 [9] = test: Cytotoxicity against human SK-MEL-5 cells after 48 hrs by SRB assay; details: SK-MEL-5, 48 h
Malme-3M = test: Cytotoxicity against human MALME-3M cells after 48 hrs by SRB assay
SW-620 = test: Cytotoxicity against human SW620 cells after 48 hrs by SRB assay; details: SW-620, 48 h
COLO 205 = test: Cytotoxicity against human COLO205 cells after 48 hrs by SRB assay; details: COLO 205, 48 h
DU-145 = test: Cytotoxicity against human DU145 cells assessed as cell growth at 10^-6 M after 48 hrs by SRB assay; details: DU-145, 48 h, read-out: Activity
TK-10 = test: Cytotoxicity against human TK10 cells assessed as cell growth at 10^-6 M after 48 hrs by SRB assay; details: TK-10, 48 h, read-out: Activity
IGROV-1 = test: Cytotoxicity against human IGROV1 cells assessed as cell growth at 10^-6 M after 48 hrs by SRB assay; details: IGROV-1, 48 h, read-out: Activity
HOP-92 = test: Cytotoxicity against human HOP92 cells assessed as cell growth at 10^-6 M after 48 hrs by SRB assay; details: HOP-92, 48 h, read-out: Activity
HL-60(TB) = test: Cytotoxicity against human HL-60(TB) cells assessed as cell growth at 10^-6 M after 48 hrs by SRB assay; details: HL-60, 48 h, read-out: Activity
MDA-MB-468 = test: Cytotoxicity against human MDA-MB-468 cells assessed as cell growth at 10^-7 M after 48 hrs by SRB assay; details: MDA-MB-468, 48 h, read-out: Activity
MDA-MB-231 [10] = test: Cytotoxicity against human MDA-MB-231 cells assessed as cell growth at 10^-7 M after 48 hrs by SRB assay; details: MDA-MB-231, 48 h, read-out: Activity
SN12C = test: Cytotoxicity against human SN12C cells assessed as cell growth at 10^-7 M after 48 hrs by SRB assay; details: read-out: Activity
786-0 = test: Cytotoxicity against human 786-0 cells assessed as cell growth at 10^-7 M after 48 hrs by SRB assay; details: 786-0, 48 h, read-out: Activity
[11] = Cytotoxicity against human NCI-ADR-RES cells assessed as cell growth at 10^-7 M after 48 hrs by SRB assay; details: read-out: Activity

**Q.** For `C=CCn1c(C)nc2ccc(Nc3nc(Nc4ccc(F)cc4)nc4ccccc34)cc21`, which GI50 (NCI-H23 [1]) is on record?
**A.** 4.23 µM

**Q.** What about the LC50 (concentration giving 50% net cell kill) (NCI-H23 [1]) of the same compound?
**A.** > 100 µM

**Q.** And the TGI (NCI-H23 [1])?
**A.** 26 µM

**Q.** And the growth at 0.1 µM (SK-MEL-2 [2])?
**A.** 101%

**Q.** And the growth at 0.1 µM (SNB-19)?
**A.** 93%

**Q.** What about the growth at 0.01 µM [3] of the same compound?
**A.** 92%

**Q.** What about the growth at 0.01 µM (MDA-MB-231 [4]) of the same compound?
**A.** 99%

**Q.** And the growth at 100 µM [5]?
**A.** -80%

**Q.** What about the growth at 100 µM (SK-MEL-5 [6]) of the same compound?
**A.** -69%

**Q.** What about the growth at 100 µM (MDA-MB-435) of the same compound?
**A.** -53%

**Q.** What about the growth at 100 µM (SF-295) of the same compound?
**A.** -87%

**Q.** What about the growth at 100 µM (HCT-116) of the same compound?
**A.** -77%

**Q.** What about the growth at 0.01 µM (SK-MEL-2 [7]) of the same compound?
**A.** 98%

**Q.** What about the growth at 100 µM (CCRF-CEM) of the same compound?
**A.** -23%

**Q.** And the growth at 0.01 µM (SF-268)?
**A.** 88%

**Q.** What about the growth at 0.01 µM (KM12) of the same compound?
**A.** 95%

**Q.** And the growth at 0.01 µM (HT-29)?
**A.** 100%

**Q.** And the growth at 0.01 µM (NCI-H322M)?
**A.** 87%

**Q.** And the growth at 0.01 µM (NCI-H23 [8])?
**A.** 94%

**Q.** And the growth at 0.01 µM (NCI-H226)?
**A.** 92%

**Q.** What about the growth at 0.01 µM (HOP-62) of the same compound?
**A.** 93%

**Q.** And the growth at 0.01 µM (RPMI-8226)?
**A.** 106%

**Q.** And the growth at 0.01 µM (K562)?
**A.** 102%

**Q.** What about the GI50 (T47D) of the same compound?
**A.** 1.7 µM

**Q.** What about the LC50 (T47D) of the same compound?
**A.** > 100 µM

**Q.** What about the TGI (T47D) of the same compound?
**A.** 4.23 µM

**Q.** And the GI50 (RXF 393)?
**A.** 1.23 µM

**Q.** And the TGI (RXF 393)?
**A.** 2.57 µM

**Q.** And the CC50 (RXF 393; read-out: LC50 (the source's name))?
**A.** 5.38 µM

**Q.** What about the GI50 (SK-MEL-5 [9]) of the same compound?
**A.** 1.36 µM

**Q.** What about the LC50 (SK-MEL-5 [9]) of the same compound?
**A.** 5.14 µM

**Q.** What about the TGI (SK-MEL-5 [9]) of the same compound?
**A.** 2.64 µM

**Q.** What about the GI50 (Malme-3M) of the same compound?
**A.** 13.1 µM

**Q.** And the LC50 (Malme-3M)?
**A.** 97.3 µM

**Q.** And the TGI (Malme-3M)?
**A.** 35.7 µM

**Q.** And the GI50 (SW-620)?
**A.** 2.8 µM

**Q.** And the LC50 (concentration killing 50% of cells) (SW-620)?
**A.** > 100 µM

**Q.** What about the TGI (SW-620) of the same compound?
**A.** 10.7 µM

**Q.** What about the GI50 (COLO 205) of the same compound?
**A.** 1.75 µM

**Q.** And the TGI (COLO 205)?
**A.** 3.25 µM

**Q.** And the growth at 1 µM (DU-145)?
**A.** 95%

**Q.** What about the growth at 1 µM (TK-10) of the same compound?
**A.** 100%

**Q.** What about the growth at 1 µM (IGROV-1) of the same compound?
**A.** 91%

**Q.** What about the growth at 1 µM (HOP-92) of the same compound?
**A.** 41%

**Q.** What about the growth at 1 µM (HL-60(TB)) of the same compound?
**A.** 104%

**Q.** And the growth at 0.1 µM (MDA-MB-468)?
**A.** 74%

**Q.** What about the growth at 0.1 µM (MDA-MB-231 [10]) of the same compound?
**A.** 98%

**Q.** What about the growth at 0.1 µM (SN12C) of the same compound?
**A.** 96%

**Q.** And the growth at 0.1 µM (786-0)?
**A.** 98%

**Q.** What about the growth at 0.1 µM [11] of the same compound?
**A.** 97%
